The source of these data is US9593136B2 (priority 2011, dated 2017).

Converted amounts (≈) assume the structure as drawn. Like-named read-outs stand apart in the source and are kept apart here.

Broadly, the IC50 is the concentration that gives 50% inhibition.

In one assay the test system is Mtb H37Rv (ATCC 27294). In words: microbe, parasite or virus in culture. The assay is classed as cell-based, Mycobacterium tuberculosis. The settings on record: for MIC: Mycobacterium tuberculosis.
A further assay concerns the target M. tuberculosis Dxr (Mycobacterium tuberculosis, UniProt P9WNS1). In words: biochemical.
The mark [1] stands for this setting: read-out: Mtb MIC (ug/mL) (7H9).
Setting [2] is: read-out: Mtb MIC (ug/mL) (GAST).

Chain of M. tuberculosis Dxr (P9WNS1 whole entry, looked up): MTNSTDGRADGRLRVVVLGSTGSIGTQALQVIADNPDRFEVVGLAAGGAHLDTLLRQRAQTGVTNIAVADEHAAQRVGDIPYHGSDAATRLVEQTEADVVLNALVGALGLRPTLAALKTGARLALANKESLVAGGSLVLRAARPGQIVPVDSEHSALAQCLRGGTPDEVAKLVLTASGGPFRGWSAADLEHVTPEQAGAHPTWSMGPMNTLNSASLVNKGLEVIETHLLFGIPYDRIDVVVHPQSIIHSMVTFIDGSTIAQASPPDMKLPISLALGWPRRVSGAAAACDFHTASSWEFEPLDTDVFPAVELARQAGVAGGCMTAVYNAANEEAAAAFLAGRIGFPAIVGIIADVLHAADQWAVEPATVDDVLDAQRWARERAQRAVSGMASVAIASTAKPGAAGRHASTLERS

Consider `CC(=O)N(CCCP(=O)(OCOC(=O)C(C)(C)C)OCOC(=O)C(C)(C)C)OCc1ccc(C(C)C)cc1` [GSJ96], for which, in the assay with Mtb H37Rv (ATCC 27294) (read-out: Mtb MIC (ug/mL)), the MIC was determined as 12.5 µg/mL (≈ 22.4 µM). Consider `O=C(NCCCP(=O)(O)O)c1ccc2ccccc2c1` [GSJ 56], for which the remaining activity at 100 µg/mL at M. tuberculosis Dxr (read-out: Mtb Dxr, value in parentheses (percent enzyme activity remaining)) came to 90%; at M. tuberculosis Dxr (read-out: percent enzyme activity remaining at 100 ug/ml compound) it was 90%. In the assay with Mtb H37Rv (ATCC 27294) (read-out: Mtb MIC (ug/mL)), the MIC is more than 200 µg/mL. Take `CCOP(=O)(CCCN(O)C(C)=O)OCC` [GSJ21]: in the assay on Mtb H37Rv (ATCC 27294), the “Mtb MIC” value was more than 200 µg/mL. `CCOP(=O)(CCCN(OCc1ccc(C)cc1)C(C)=O)OCC` [GSJ114]: the MIC in the assay with Mtb H37Rv (ATCC 27294) (read-out: Mtb MIC (ug/mL)) was more than 400 µg/mL. On to `CC(=O)N(CCCP(=O)(OCOC(=O)C(C)(C)C)OCOC(=O)C(C)(C)C)OCCCCc1ccccc1` [GSJ89], for which the MIC in the assay with Mtb H37Rv (ATCC 27294) (setting [1]) is 12.5 µg/mL (≈ 22.4 µM); in the assay with Mtb H37Rv (ATCC 27294) (setting [2]) it was 6.25 to 12.5 µg/mL (≈ 11.2 to 22.4 µM).

On M. tuberculosis Dxr (IC50 (μM)), `CC(=O)N(CCCP(=O)(O)O)OCCc1ccccc1` [Compound 3, Sodium hydrogen 3-(N-(phenethyloxy)acetamido)propylphosphonate] displayed an IC50 of 96.4 µM. Take `CCOP(=O)(CCCN(OCc1ccccc1-c1ccccc1)C(C)=O)OCC` [GSJ101]: the MIC with Mtb H37Rv (ATCC 27294) (read-out: Mtb MIC (ug/mL)) was 200 to 400 µg/mL (≈ 477 to 954 µM).

`CCOP(=O)(CCN(O)C=O)OCC` [Compound 5b]: in the assay with Mtb H37Rv (ATCC 27294), the “MIC 7H9” value was more than 500 µg/mL and the “MIC GAST/Fe” value is more than 500 µg/mL. `CCOP(=O)(CCCN(O)C(=O)C1CC1)OCC` [ERJ 119]: in the assay with Mtb H37Rv (ATCC 27294), the “Mtb MIC (ug/mL) (7H9)” value is >200 (7H9) >200 (GAST) ug/mL and the “Mtb MIC (ug/mL) (GAST)” value is on record as >200 (7H9) >200 (GAST) ug/mL.

Take `O=C(C1CCCCC1)N(O)CCCP(=O)([O-])O.[Na+]` [ERJ 116]: on M. tuberculosis Dxr (Mtb Dxr IC50 (ug/mL)), the IC50 was 57.8 µM. Besides, the MIC in the assay on Mtb H37Rv (ATCC 27294) (setting [1]) and in the assay with Mtb H37Rv (ATCC 27294) (setting [2]) was more than 200 µg/mL in each case. As for `CC(=O)N(CCCP(=O)(O)O)OCc1ccc(-c2ccccc2)cc1` [GSJ74], at M. tuberculosis Dxr (Mtb Dxr IC50 (ug/mL)), the IC50 is 68.6 µM. The MIC in the assay on Mtb H37Rv (ATCC 27294) (read-out: Mtb MIC (ug/mL)) is 25 to 50 µg/mL (≈ 68.8 to 138 µM). Take `CCOP(=O)(CCCN(OCc1ccc2ccccc2c1)C(C)=O)OCC` [GSJ73]: the values for the MIC in the assay with Mtb H37Rv (ATCC 27294) (setting [1]) and in the assay on Mtb H37Rv (ATCC 27294) (setting [2]) were 200 µg/mL (≈ 508 µM) and 100 µg/mL (≈ 254 µM), respectively. For `CCCCCCOP(=O)(CCCN(O)C(C)=O)OCCCCCC` [Compound 21], in the assay with Mtb H37Rv (ATCC 27294), the “MIC M. tuberculosis (H37Rv)” value is 100 µg/mL (≈ 274 µM). In the case of `CCOP(=O)(CCN(O)C(C)=O)OCC` [Compound 5f], in the assay on Mtb H37Rv (ATCC 27294), the “MIC 7H9” value is more than 500 µg/mL and the “MIC GAST/Fe” value was more than 500 µg/mL. In the case of `NNC(=O)c1ccncc1` [Isoniazid, reference compound], the MIC amounted to 0.04 µg/mL (≈ 0.292 µM) with Mtb H37Rv (ATCC 27294) (read-out: MIC 7H9 (μg/mL)) and 0.02 µg/mL (≈ 0.146 µM) in the assay with Mtb H37Rv (ATCC 27294) (read-out: MIC GAST/Fe (μg/mL)).

`O=C(Cc1ccccc1)N(O)CCCP(=O)(O)O` [GSJ 55]: the results for the IC50 on M. tuberculosis Dxr (IC50 (uM)), on M. tuberculosis Dxr (IC50 (ug/ml)) and against M. tuberculosis Dxr (Mtb Dxr IC50 (ug/mL)) were 7.49 µM, 8.09 µM and 8.09 µM, respectively. Also, the MIC with Mtb H37Rv (ATCC 27294) (read-out: Mtb MIC (ug/mL)) is more than 200 µg/mL.

For `CC(=O)N(CCCP(=O)(O)O)OCC1CCCCC1` [Compound 6, Sodium hydrogen 3-(N-(cyclohexylmethoxy)acetamido)propylphosphonate], on M. tuberculosis Dxr (IC50 (μM)), the IC50 was found to be 198 µM. On the same count and under the same terms, next, `CC(=O)N(CCCP(=O)(O)O)OCc1ccc(C(C)C)cc1` [Compound 5, Sodium hydrogen 3-(N-(4-isopropylbenzyloxy)acetamido)propylphosphonate]: 50.6 µM.

As to `CC(=O)N(CCCP(=O)(O)O)OCc1ccc(C(C)C)cc1` [GSJ76], the IC50 at M. tuberculosis Dxr (Mtb Dxr IC50 (ug/mL)) was 54 µM. Besides, the values for the MIC with Mtb H37Rv (ATCC 27294) (setting [1]) and with Mtb H37Rv (ATCC 27294) (setting [2]) were 200 µg/mL (≈ 607 µM) and 25 µg/mL (≈ 75.9 µM), respectively. `CCOP(=O)(CCCN(O)C=O)OCC` [Compound 5c]: the “MIC 7H9” value in the assay on Mtb H37Rv (ATCC 27294) turned out to be 250 µg/mL (≈ 1050 µM). Consider `CC(=O)N(CCCP(=O)(O)O)OCC1CCCCC1` [GSJ75], for which the IC50 against M. tuberculosis Dxr (Mtb Dxr IC50 (ug/mL)) was 212 µM. In the assay on Mtb H37Rv (ATCC 27294) (read-out: Mtb MIC (ug/mL)), the MIC is more than 200 µg/mL. For the compound `CCOP(=O)(CCCN(O)C(=O)c1ccccc1)OCC` [Compound 9a], the MIC in the assay on Mtb H37Rv (ATCC 27294) (read-out: MIC 7H9 (μg/mL)) is more than 500 µg/mL; in the assay with Mtb H37Rv (ATCC 27294) (read-out: MIC GAST/Fe (μg/mL)), 31.2 µg/mL (≈ 99.1 µM). On to `CCOP(=O)(CCCN(OCCc1ccc(O)cc1)C(C)=O)OCC` [GSJ80], for which, in the assay with Mtb H37Rv (ATCC 27294) (read-out: Mtb MIC (ug/mL)), the MIC lay in the range of 200 to 400 µg/mL (≈ 536 to 1070 µM). As for `CC(=O)N(CCCP(=O)(O)O)OCCCc1ccccc1` [Compound 4, Sodium hydrogen 3-(N-(3-phenylpropoxy)acetamido)propylphosphonate], the remaining activity at 100 µg/mL on M. tuberculosis Dxr (read-out: % Remaining Enzyme Activity at 100 μg/mL) amounted to 100%. Turning to `CCOP(=O)(CCCN(OCc1cccc(Br)c1)C(C)=O)OCC` [GSJ115], the MIC in the assay with Mtb H37Rv (ATCC 27294) (read-out: Mtb MIC (ug/mL)) came out at 400 µg/mL (≈ 947 µM).

`CCOP(=O)(CCCN(OCc1ccc(-c2ccccc2)cc1)C(C)=O)OCC` [GSJ72]: the MIC in the assay with Mtb H37Rv (ATCC 27294) (setting [1]) is 200 µg/mL (≈ 477 µM); in the assay on Mtb H37Rv (ATCC 27294) (setting [2]), 100 µg/mL (≈ 238 µM).
